From patent US4244869A, “Benzodiazepine derivatives and process of making them” (Kali-Chemie A.G., priority 1972, dated 1981) come the findings set out here.

For orientation: ED50 means the dose at which the effect has come halfway, by size or by number of responders. What is called LD50 is the dose at which mortality reaches 50%. The low end stands for greater toxicity, the high end for lower toxicity.

Series [1] concerns mice. Briefly: Maximum electroshock (anticonvulsive). The series is classed as in vivo. The conditions noted are these: Mus musculus, po, 1 h, orally, 60 min before electroshock. On the procedure:
(§1) (2) Anti-convulsive properties
The test substances were applied orally to the animals. Sixty minutes after application electrodes were fastened to the ears of the mice and an electric shock was effected. The dose was then determined at which in half of the animals tonic contractions in the rear extremities were prevented. The computation of the ED50 was again effected by means of the above-noted probit analysis (modified according to J. Swinyard, J. Pharmacol. exptl. Therap.-106, 93 [1952]).
(§2) The results obtained by these tests show the anticonvulsive activity of the test substances. According to the medical literature this is an important criteria for the appraising of the clinical effectiveness of tranquilizers.

Series [2] in a line: Acute seven-day toxicity (LD50), single oral application. As to conditions: mouse, in vivo, p.o., mice. On the set-up: species or system mice (white NMRI). On the procedure: The acute seven-day toxicity is determined by a single application per os and intraperitoneally to white fasting NMRI mice. The computation of the LD50 values was effected via EDV by a probit analysis (Cavalli-Sforza, publisher Gustav Fischer, 1964, Grundbegriffe der Biometrie).

Series [3] concerns mice. The series is described as follows: Isolation aggressiveness (anxiety relieving and anti-aggressive activity). The series is classed as in vivo. The conditions noted are these: Mus musculus, po, 0.5 h; orally, after 30 minutes, isolated mice. On the procedure: (3) Anxiety relieving and anti-aggressive activity. Inhibition of the aggressiveness of a mouse caused by isolation.
Before the test the mice were kept for four weeks in strict isolation in single cages. After that time the mice which had been kept in isolation spontaneously attacked other mice which were introduced then and which had not been isolated. The test substances were administered to the isolated mice orally.
The results shown in these tests permit useful conclusions regarding the anxiety, stress and tension-relieving properties of the compound.

Series [4] deals with mice. Briefly: Test de la traction (musculotropic properties). The series is classed as in vivo. As to conditions: for Quotient 2: ED50 test de la traction / ED50 isolation aggressiveness; for ED50: Mus musculus, po, 2 h, p.o., after 120 minutes, mice. On the procedure:
(4) Musculotropic properties
This test is called the "test de la traction". In this test the compounds were administered to the mice per os. After 120 minutes the mice were suspended with their front paws from a thin horizontally extending wire. […] These tests have the purpose to check the effects on the muscle tone by the compounds.
The ED50 values was effected via EDV by a probit analysis.

The test system of series [5] is mice. Briefly: Pentetrazol induced convulsions (anticonvulsive). The series is classed as in vivo. The conditions noted are these: Mus musculus, po, 1 h, p.o., 60 min before pentetrazol 100 mg/kg s.c., read-out: Pentetrazol spasm ED50. As to the method: as §1
(a) Pentetrazol induced convulsions
The compounds were tested after per oral administration to groups of six mice each. Sixty minutes after application of the test compounds pentetrazol was injected subcutaneously at a dosage of 100 mg/kg. The appearance of clonic and tonic convulsions was checked through a total observation time of 45 minutes. The protective effects of the compounds against convulsions were determined in control tests with comparison compounds. The effective dose ED50 was computed from the probit logarithmic dosage curves (modified according to J. E. Blum et al. Arzneimittel-Forsch. 23, 377 [1973]).
as §2

Series [6] deals with mice. The series is described as follows: Prolongation of hexobarbital induced sleep (C.N.S. quieting properties). As to conditions: for Quotient 1: ED50 elongation of hexobarbital induced sleep / ED50 isolation aggressiveness; for ED50: Mus musculus, po, 0.5 h, p.o., 30 min before hexobarbital 64 mg/kg i.v., prolongation by a factor of 4 in half of the mice. The series is classed as in vivo. On the procedure: (5) C.N.S. quieting properties
(Prolongation of hexobarbital induced sleep)
The test substance was applied to the mice per os. The animals after 30 minutes received additionally an intravenous injection of 64 mg/kg of hexobarbital. […] The duration of this lateral position was then compared with the control group which had been treated only with hexobarbital.
As ED50 that dose was defined at which with one-half of the animals a prolongation of the lateral position occurred by a factor of 4 as against the control group (G. M. Everett, Nature 177, 1238 [1956]).

For `COCC1CN=C(c2ccccc2Cl)c2cc(Cl)ccc2N1C` (stereo not drawn) [Standard I, 7-chloro-1-methyl-2-methoxymethyl-5-(2'-chlorophenyl)-1H-2,3-dihydro-1,4-benzodiazepin, reference compound], the ED50 was 26 mg/kg in the series with mice [1]; 68 mg/kg in the series on mice [3]; 163 mg/kg in the series on mice [4]; 2 mg/kg in the series with mice [5]; 11.7 mg/kg in the series on mice [6]. Moreover, the LD50 at 168 h in series [2] was 1780 mg/kg. The “Quotient 2” value with mice [4] is 2.4. In the series on mice [6], the “Quotient 1” value came out at 0.17.
Consider `COCC1CN=C(c2ccccc2Cl)c2cc(Br)ccc2N1C` (stereo not drawn) [Compound 1, 7-bromo-1-methyl-2-methoxymethyl-5-(2'-chlorophenyl)-1H-2,3-dihydro-1,4-benzodiazepin], for which the ED50 came out at 3 mg/kg in the series with mice [1]; 3.1 mg/kg with mice [3]; 87 mg/kg in the series on mice [4]; 0.9 mg/kg with mice [5]; 15.2 mg/kg in the series on mice [6]. For the same compound, the 50% lethal dose (LD50) at 168 h in series [2] was 1580 mg/kg. Further, the “Quotient 2” value in the series on mice [4] is recorded as 28.1. Moreover, the “Quotient 1” value in the series with mice [6] was 4.9.
As to `COCC1CN=C(c2ccccc2F)c2cc(Br)ccc2N1C` (stereo not drawn) [Compound 3, 7-bromo-1-methyl-2-methoxymethyl-5-(2'-fluorophenyl)-1H-2,3-dihydro-1,4-benzodiazepin], the ED50 was 5 mg/kg in the series on mice [1]; 10.7 mg/kg in the series on mice [3]; 58.3 mg/kg with mice [4]; 0.5 mg/kg in the series with mice [5]; 10.6 mg/kg with mice [6]. For the same compound, in series [2], the 50% lethal dose (LD50) at 168 h is 1580 mg/kg. The “Quotient 2” value with mice [4] is on record as 5.4. The “Quotient 1” value in the series on mice [6] turned out to be 0.9.
Turning to `CCOCC1CN=C(c2ccccc2Cl)c2cc(Br)ccc2N1C` (stereo not drawn) [Compound 2, 7-bromo-1-methyl-2-ethoxymethyl-5-(2'-chlorophenyl)-1H-2,3-dihydro-1,4-benzodiazepin], the ED50 in the series with mice [1] was 24.5 mg/kg; with mice [3], 4.1 mg/kg; in the series on mice [4] it was 34.9 mg/kg; in the series on mice [5] it was 2.2 mg/kg; in the series with mice [6] it was 41.9 mg/kg. Besides, in series [2], the 50% lethal dose (LD50) at 168 h is over 1470 mg/kg. Also, the “Quotient 2” value in the series with mice [4] turned out to be 8.5. Moreover, the “Quotient 1” value in the series on mice [6] is given as 10.2.
`CN1C(=O)CN=C(c2ccccc2)c2cc(Cl)ccc21` [Standard II, 7-chloro-1-methyl-5-phenyl-1,3-dihydro-2H-1,4-benzodiazepin-2-one, reference compound]: the median effective dose (ED50) with mice [1] came to 9 mg/kg; in the series on mice [3], 3.6 mg/kg; in the series with mice [4], 4.2 mg/kg; in the series on mice [5] it was 0.5 mg/kg; in the series on mice [6], 1.5 mg/kg. The “Quotient 2” value in the series on mice [4] was determined as 1.2. The “Quotient 1” value with mice [6] was 0.42.
